Source: US8884061B2, “Compositions and methods of use of electron transport system inhibitors” (priority 2006, dated 2014)
Read-outs that look alike come from different tables or passages of the source.

Columns and labels:
[1] = tested on: E. faecalis ATCC 51299 (VRE); experiment: MIC, other bacteria (Table 3); type: cell-based; conditions: low level VCM-resistant, Van B, inoculum size 10^6 CFU/ml
S. marsascens ATCC 14756 = experiment: MIC, other bacteria (Table 3); type: cell-based; conditions: inoculum size 10^6 CFU/ml
K. pneumoniae ATCC 27736 = experiment: MIC, other bacteria (Table 3); type: cell-based
MRSE 2442-05060 = experiment: MIC, other bacteria (Table 3); type: cell-based, S. epidermidis; conditions: inoculum size 10^6 CFU/ml
MRSA 2441-05254 = experiment: MIC, other bacteria (Table 3); type: cell-based, S. aureus; conditions: inoculum size 10^6 CFU/ml
E. coli ATCC 25922 = experiment: MIC, other bacteria (Table 3); type: cell-based
[2] = tested on: S. aureus ATCC 43300 (MRSA); experiment: MIC, other bacteria (Table 3); type: cell-based; conditions: inoculum size 10^6 CFU/ml
MRSE 2442-05118 = experiment: MIC, other bacteria (Table 3); type: cell-based, S. epidermidis; conditions: inoculum size 10^6 CFU/ml
MRSE 2442-05047 = experiment: MIC, other bacteria (Table 3); type: cell-based, S. epidermidis; conditions: inoculum size 10^6 CFU/ml
MRSA 2441-05104 = experiment: MIC, other bacteria (Table 3); type: cell-based, S. aureus; conditions: inoculum size 10^6 CFU/ml
MRSA 2441-05112 = experiment: MIC, other bacteria (Table 3); type: cell-based, S. aureus; conditions: inoculum size 10^6 CFU/ml
MRSA 2441-05129 = experiment: MIC, other bacteria (Table 3); type: cell-based, S. aureus; conditions: inoculum size 10^6 CFU/ml
MRSA 2441-05223 = experiment: MIC, other bacteria (Table 3); type: cell-based, S. aureus; conditions: inoculum size 10^6 CFU/ml
VRSA 2441-T0041 = experiment: MIC, other bacteria (Table 3); type: cell-based, S. aureus
[3] = tested on: S. epidermidis ATCC 12228; experiment: MIC, other bacteria (Table 3); type: cell-based
[4] = tested on: E. faecium NCTC 12203 (VRE); experiment: MIC, other bacteria (Table 3); type: cell-based; conditions: high level VCM-resistant, Van A, inoculum size 10^6 CFU/ml
S. aureus ATCC 29213 = experiment: MIC, other bacteria (Table 3); type: cell-based
P. mirabilis ATCC 4630 = experiment: MIC, other bacteria (Table 3); type: cell-based
E. faecium ATCC 49224 = experiment: MIC, other bacteria (Table 3); type: cell-based; conditions: E. faecium ATCC 49224, GM-resistant, inoculum size 10^6 CFU/ml
MRSA 2441-05262 = experiment: MIC, other bacteria (Table 3); type: cell-based, S. aureus; conditions: inoculum size 10^6 CFU/ml
MRSE 2442-05030 = experiment: MIC, other bacteria (Table 3); type: cell-based, S. epidermidis; conditions: inoculum size 10^6 CFU/ml
VRSA 2441-T0044 = experiment: MIC, other bacteria (Table 3); type: cell-based, S. aureus
E. faecalis ATCC 29212 = experiment: MIC, other bacteria (Table 3); type: cell-based
MRSE 2442-05053 = experiment: MIC, other bacteria (Table 3); type: cell-based, S. epidermidis; conditions: inoculum size 10^6 CFU/ml
[5] = tested on: E. faecalis NCTC 12201 (VRE); experiment: MIC, other bacteria (Table 3); type: cell-based; conditions: high level VCM-resistant, Van A, inoculum size 10^6 CFU/ml
P. aeruginosa ATCC 27853 = experiment: MIC, other bacteria (Table 3); type: cell-based
MRSE 2442-05110 = experiment: MIC, other bacteria (Table 3); type: cell-based, S. epidermidis; conditions: inoculum size 10^6 CFU/ml
M. smegmatis Takeo = experiment: MIC, agar (7H11) dilution method; type: cell-based; conditions: Mycolicibacterium smegmatis, read-out: Minimum inhibitory concentrations (MIC)
[6] = tested on: M. intracellularae ATCC 15984; experiment: MIC, agar (7H11) dilution method; type: cell-based; conditions: read-out: Minimum inhibitory concentrations (MIC)
M. bovis BCG Tokyo = experiment: microbe, parasite or virus in culture; type: cell-based; conditions: Mycobacterium tuberculosis variant bovis BCG, BCG, read-out: Minimum inhibitory concentrations (MIC)
M. tuberculosis Kurono = experiment: MIC, agar (7H11) dilution method; type: cell-based; conditions: Mycobacterium tuberculosis, read-out: Minimum inhibitory concentrations (MIC)
M. avium Flamingo = experiment: MIC, agar (7H11) dilution method; type: cell-based; conditions: Mycobacterium avium, read-out: Minimum inhibitory concentrations (MIC)
M. tuberculosis H37Rv = experiment: MIC, agar (7H11) dilution method; type: cell-based; conditions: Mycobacterium tuberculosis, H37RV
M. kansasii NIHJ1619 = experiment: MIC, agar (7H11) dilution method; type: cell-based; conditions: Mycobacterium kansasii, read-out: Minimum inhibitory concentrations (MIC)
M. fortuitum NIHJ1615 = experiment: MIC, agar (7H11) dilution method; type: cell-based; conditions: Mycolicibacterium fortuitum, read-out: Minimum inhibitory concentrations (MIC)
M. aurum = experiment: MIC, agar (7H11) dilution method; type: cell-based; conditions: Mycolicibacterium aurum, read-out: Minimum inhibitory concentrations (MIC)
[7] = Enterococcus faecalis, read-out: MIC
[8] = Klebsiella pneumoniae, ATCC27736, inoculum size 10^6 CFU/ml, read-out: MIC
[9] = Staphylococcus epidermidis, read-out: MIC
[10] = Staphylococcus aureus, read-out: MIC
[11] = Escherichia coli, ATCC25922, inoculum size 10^6 CFU/ml, read-out: MIC
[12] = Staphylococcus epidermidis, ATCC12228, inoculum size 10^6 CFU/ml, read-out: MIC
[13] = Enterococcus faecium, read-out: MIC
[14] = Staphylococcus aureus, ATCC29213, inoculum size 10^6 CFU/ml, read-out: MIC
[15] = Proteus mirabilis, ATCC4630, inoculum size 10^6 CFU/ml, read-out: MIC
[16] = Enterococcus faecium, ATCC49224, read-out: MIC
[17] = Enterococcus faecalis, ATCC29212, inoculum size 10^6 CFU/ml, read-out: MIC
[18] = Pseudomonas aeruginosa, ATCC27853, inoculum size 10^6 CFU/ml, read-out: MIC

Measured: MIC

CC1COc2c(N3CCN(C)CC3)c(F)cc3c(=O)c(C(=O)O)cn1c23 (stereo not drawn) [OFLX, ofloxacin, reference compound]
0.024 µg/mL: S. marsascens ATCC 14756; read-out: MIC
50 µg/mL: MRSA 2441-05254; [10] | MRSA 2441-05112; [10] | MRSA 2441-05262; [10]
1.25 µg/mL: VRSA 2441-T0041; Staphylococcus aureus, VRSA | VRSA 2441-T0044; Staphylococcus aureus, VRSA
25 µg/mL: MRSA 2441-05104; [10]
0.05 µg/mL: E. coli ATCC 25922; [11]
3.13 µg/mL: [4]; [13] | E. faecium ATCC 49224; [16] | P. aeruginosa ATCC 27853; [18]
1 µg/mL: MRSA 2441-05129; [10]
1.56 µg/mL: [1]; [7] | E. faecalis ATCC 29212; [17] | [5]; [7]
0.2 µg/mL: K. pneumoniae ATCC 27736; [8] | MRSA 2441-05223; [10] | [3]; [12] | S. aureus ATCC 29213; [14]
0.39 µg/mL: [2]; [10] | P. mirabilis ATCC 4630; [15]
6.25 µg/mL: MRSE 2442-05060; [9] | MRSE 2442-05118; [9] | MRSE 2442-05047; [9] | MRSE 2442-05030; [9] | MRSE 2442-05053; [9] | MRSE 2442-05110; [9]

CN[C@H](CC(C)C)C(=O)N[C@H]1C(=O)N[C@@H](CC(N)=O)C(=O)N[C@H]2C(=O)N[C@H]3C(=O)N[C@H](C(=O)N[C@H](C(=O)O)c4cc(O)cc(O)c4-c4cc3ccc4O)[C@H](O)c3ccc(c(Cl)c3)Oc3cc2cc(c3O[C@@H]2O[C@H](CO)[C@@H](O)[C@H](O)[C@H]2O[C@H]2C[C@](C)(N)[C@H](O)[C@H](C)O2)Oc2ccc(cc2Cl)[C@H]1O [VCM, reference compound]
1.25 µg/mL: [1]
3.13 µg/mL: VRSA 2441-T0041; VRSA 2441-T0041, low level VCM-resistant, inoculum size 10^6 CFU/ml | E. faecium ATCC 49224 | MRSE 2442-05030 | E. faecalis ATCC 29212; inoculum size 10^6 CFU/ml
1.56 µg/mL: MRSE 2442-05060 | MRSA 2441-05254 | MRSE 2442-05118 | MRSE 2442-05047 | [3]; inoculum size 10^6 CFU/ml | MRSE 2442-05053 | MRSE 2442-05110
0.78 µg/mL: [2] | MRSA 2441-05104 | MRSA 2441-05112 | MRSA 2441-05129 | MRSA 2441-05223 | S. aureus ATCC 29213; inoculum size 10^6 CFU/ml | MRSA 2441-05262
6.25 µg/mL: VRSA 2441-T0044; VRSA 2441-T0044, low level VCM-resistant, inoculum size 10^6 CFU/ml
>100 µg/mL: S. marsascens ATCC 14756 | K. pneumoniae ATCC 27736; inoculum size 10^6 CFU/ml | E. coli ATCC 25922; inoculum size 10^6 CFU/ml | [4] | P. mirabilis ATCC 4630; inoculum size 10^6 CFU/ml | [5] | P. aeruginosa ATCC 27853; inoculum size 10^6 CFU/ml

C=CCN(C)CCCCCCCCOc1ccc(C(=O)c2ccc(Cl)cc2)c(O)c1 [Cpd #22, (4-(8-(allyl(methyl)amino)octyloxy)-2-hydroxyphenyl)(4-chlorophenyl)methanone]
3.13 µg/mL: M. bovis BCG Tokyo | M. tuberculosis H37Rv; read-out: Minimum inhibitory concentrations (MIC), M. tuberculosis H37Rv, table line r11 (5th of 5 so labelled)
6.25 µg/mL: [6] | M. avium Flamingo | [4]; [13] | M. kansasii NIHJ1619 | M. aurum
> 100 µg/mL: S. marsascens ATCC 14756; read-out: MIC | K. pneumoniae ATCC 27736; [8] | P. mirabilis ATCC 4630; [15] | P. aeruginosa ATCC 27853; [18]
1.56 µg/mL: M. tuberculosis Kurono | M. tuberculosis H37Rv; read-out: Minimum inhibitory concentrations (MIC), M. tuberculosis H37Rv, table line r7 (1st of 5 so labelled) | M. tuberculosis H37Rv; read-out: Minimum inhibitory concentrations (MIC), M. tuberculosis H37Rv, table line r8 (2nd of 5 so labelled) | M. tuberculosis H37Rv; read-out: Minimum inhibitory concentrations (MIC), M. tuberculosis H37Rv, table line r9 (3rd of 5 so labelled) | M. tuberculosis H37Rv; read-out: Minimum inhibitory concentrations (MIC), M. tuberculosis H37Rv, table line r10 (4th of 5 so labelled)
50 µg/mL: MRSA 2441-05254; [10] | E. coli ATCC 25922; [11] | MRSA 2441-05129; [10]
12.5 µg/mL: [1]; [7] | M. smegmatis Takeo | MRSE 2442-05060; [9] | MRSE 2442-05118; [9] | MRSE 2442-05047; [9] | [3]; [12] | E. faecium ATCC 49224; [16] | MRSE 2442-05030; [9] | E. faecalis ATCC 29212; [17] | M. fortuitum NIHJ1615 | MRSE 2442-05053; [9] | [5]; [7] | MRSE 2442-05110; [9]
25 µg/mL: [2]; [10] | MRSA 2441-05104; [10] | MRSA 2441-05112; [10] | MRSA 2441-05223; [10] | VRSA 2441-T0041; Staphylococcus aureus, VRSA 2441-T0041, low level VCM-resistant, inoculum size 10^6 CFU/ml, read-out: MIC | S. aureus ATCC 29213; [14] | MRSA 2441-05262; [10]
